Activity calls are given as the source filed them.
Assays:
Type in all cases: functional, organism-based
[1] = tested on: Mus musculus; test: Anti-hyperglycemic activity in C57BL/6J DIO mouse assessed as reduction in plasma glucose level at 0.3 umol/kg at 120 mins post dose by OGTT; conditions: dose 0.3 µM/Kg
[2] = species: Mus musculus; test: Anti-hyperglycemic activity in C57BL/6J DIO mouse assessed as reduction in plasma glucose level incubated for 1 hr by OGTT; conditions: dose 1-10 µM/Kg
[3] = tested on: Mus musculus; test: Anti-hyperglycemic activity in C57BL/6J DIO mouse assessed as reduction in plasma glucose level at 3 to 30 umol/kg measured on day 1 by OGTT; conditions: dose 3-30 µM/Kg

Measured: Activity

CCOP(=O)(Cn1ccc(NC(=O)c2cc(Oc3cnc(C(=O)N4CCC4)cn3)cc(OC(C)C)c2)n1)OCC
active: [1] | [2] Dose-Dependent Effect | [3]

From ChEMBL document CHEMBL5046279, “Discovery of a Partial Glucokinase Activator Clinical Candidate: Diethyl ((3-(3-((5-(Azetidine-1-carbonyl)pyrazin-2-yl)oxy)-5-isopropoxybenzamido)-1H-pyrazol-1-yl)methyl)phosphonate (BMS-820132)” (J Med Chem, 2022)
